Data on 1 substance can be found in patent US20040087498A1, “Modified factor VII” (Novo Nordisk Health Care AG, priority 1991, published 2004).

Experiment [1] concerns tissue factor preparation (saline extract of baboon brain). As to the kind of experiment: Clotting assay in normal baboon plasma with baboon brain tissue factor. The format is biochemical. On the procedure:
The samples were mixed and briefly incubated at 37° C. The samples were added to an Electra 800 Automatic Coagulation Timer (Medical Laboratories Automation, Pleasantville, N.Y.). […] A tissue factor preparation was made as a saline extract of baboon brain from freshly frozen brain tissue and characterized for its ability to initiate coagulation in baboon plasma. A concentration of tissue factor that gave a clotting time of about 40 seconds was selected.

Experiment [2] has as its system tissue factor (TF) and activated Factor VII (FVIIa) mediation of vascular lesion formation. Briefly: Vascular lesion formation after carotid endarterectomy in baboons. The format is in vivo. The settings on record: baboon. On the procedure: Measurements were performed for vascular lesion formation on day 30. The results in 5 treated animals were compared with the findings in 5 concurrent vehicle buffer-infused controls.
Under halothane anesthesia and sterile operating conditions, animals labeled with autologous ^111In-platelets received intravenous infusions of DEGR-FVIIa using the tether system for continuous intravenous administration (initial bolus injection of 1 mg/kg followed by continuous intravenous infusion of 50 μg/kg/hr. The animals received surgical carotid endarterectomy, bilateral brachial artery or bilateral femoral artery Fogarty balloon catheter angioplasties.
The DEGR-FVIIa was administered for 7 or 30 days by continuous infusions via venous catheter using the tether system. Thirty days after surgery the animals were anesthetized with halothane and underwent in situ pressure-perfusion fixation with 4% paraformaldehyde containing 0.1% glutaraldeyde for 30 min. […]
Carotid endarterectomy was performed through a midline neck incision using the technique of Hanson et al., Hypertension 18:I170-I-176 (1991) and Krupski et al., Circulation 84:1749-1757 (1991), incorporated herein by reference. […] The endarterectomy was then performed beginning 1 cm from the divided end of the everted vessel segment and continued for a measured distance of 1 cm. […]

The subject of the next experiment is gram-negative bacteremia. Briefly: Survival of treated baboons. In kind it is in vivo, baboon.
Another experiment relates to femoral artery lumen. As to the kind of experiment: Angiographic luminal diameter after balloon angioplasty in atherosclerotic rabbits. In kind it is in vivo, rabbit. The method, then: The test drug delivery for the animals consisted of an initial bolus injection immediately prior to balloon angioplasty, followed by a continuous systemic infusion by osmotic pump via the internal jugular vein. The duration of the drug infusion was 3 days. The control animals received heparin, 150 U/kg IV bolus, prior to balloon angioplasty followed by saline infusion. The DEGR-FVIIa treated animals received a 1 mg/kg bolus injection followed by 50 μg/kg/hr infusion.
For the placement of the osmotic pumps for continuous systemic infusion, anesthesia was induced in the animals as described above, and maintained throughout the procedure with additional IM injections of ketamine and Xylazine. Through a midline neck incision, the right internal jugular vein was isolated by blunt dissection and the distal end ligated. A silastic tube (PE-160) was introduced into the right internal jugular vein. A subcutanecus tunnel was created to pass the silastic tube. This tube was connected with the osmotic pump. The osmotic pump was implanted subcutaneously in the back of the rabbit. The right common carotid artery was isolated by blunt dissection and the distal end ligated. Via an arteriotomy, a 5F introducer was placed and advanced to the junction of the aortic arch. Blood was drawn for determination of hemostatic parameters, drugs and cholesterol levels. Twenty milligrams of xylocain was injected intraarterially. A control aortoilibfemoral angiogram was performed via a 5F Berman catheter positioned above the aortic bifurcation using 3-4 ml renographin injected over 3 seconds by hand.
Following balloon dilatation, the angioplasty catheter was withdrawn and the Berman catheter reintroduced to a position 3 cm above the aortic bifurcation. To minimize spasm 20 mg of lidocaine was given intraarterially. A post procedure angiogram was performed as described above. A 1 cm grid was positioned at the level of the femoral artery to calculate the actual diameter. The catheter was then removed. The right carotid artery was ligated with 3-0 silk and the wound sutured by layers. […]

As for “DEGR-Factor VIIa: Recombinant human Factor VIIa with its active site derivatized by Dansyl-L-Glu-Gly-Arg-chloromethyl Ketone (DEGRck)”, the Clotting time amounted to 46.2 s in experiment [1] (0.5 μg/ml plasma); 50.8 s in experiment [1] (1.0 μg/ml plasma); 64.5 s in experiment [1] (2.5 μg/ml plasma); 108.1 s in experiment [1] (5.0 μg/ml plasma); 158.4 s in experiment [1] (10.0 μg/ml plasma). The intimal area result in experiment [2] (treated for 30 days, examined at 30 days) is listed as “A similar result”; in experiment [2] (treated for seven days, studied at 30 days, versus control), “significantly decreased”. The survival entry in the experiment with gram-negative bacteremia is on record as “prolong survival of treated animals”. Moreover, the results for the “Mean MLD” value in the experiment on femoral artery lumen (21 Day Measurement), with femoral artery lumen (Post-PTCA Measurement) and in the experiment on femoral artery lumen (Pre-PTCA Measurement) were 1.393, 1.323 and 1.283, respectively.
